In patent US11446292B2, “Compounds and conjugates thereof” (MedImmune Limited, priority 2019, dated 2022):

System: NCI-N87 cells
Experiment: In vitro assay of warhead, cell viability by MTS
Assay type: cell-based
Settings: Homo sapiens, 168 h, 7 days incubation, mean of three independent replicates
Protocol: Solid test material was dissolved in DMSO to a 2 mM stock solution, from which eight serial dilutions were made at a 1:10 ratio in DMSO and stored at −20° C. until use.
Adherent NCI-N87 cells were washed with D-PBS and detached with Trypsin-EDTA, cell density and viability were then determined in duplicate by Trypan blue exclusion assay using an automated cell counter (LUNA-II™). Cell suspension was diluted to 1×10^5 cells/ml in growth media (RPMI 1640 with Glutamax+10% (v/v) HyClone™ Fetal Bovine Serum) and vortexed before dispensing 2 mL per well into sterile 3 mL polypropylene plates. Warhead dilutions were then dispensed into the appropriate wells at 10 μl/well and mixed by repeat pipetting. […] At the end of the incubation period time (7 days), cell viability was measured by CellTiter 96 ™ aqueous One (MTS) assay, which was dispensed at 20 μl/well and incubated for 4 hours at 37° C., 5% CO2. Plates were then read on an EnVision™ Multi-label Plate Reader (Perkin Elmer) using absorbance at 490 nm.
Cell survival percentage was calculated from the mean absorbance of the 2 replicate wells for each sample, compared to the mean absorbance in the two control wells treated with DMSO only (100%). The IC50 was determined by fitting each data set to sigmoidal dose-response curves with a variable slope using the non-linear curve fit algorithm on the GraphPad Prism software (San Diego, Calif.). […]

CC[C@@]1(O)C(=O)OCc2c1cc1n(c2=O)Cc2c-1nc1ccc(N)c3c1c2CCC3 [Compound I11, (S)-4-amino-9-ethyl-9-hydroxy-1,2,3,9,12,15-hexahydro-10H,13H-benzo[de]pyrano[3′,4′:6,7]indolizino[1,2-b]quinoline-10,13-dione]
IC50: 0.385 nM
